The cell lines below were run with C1CC(C2=C(C1)C3=C(N2)C=CC(=C3)Cl)C(=O)N [Selisistat] + COc1cc2c(Oc3ccc(NC(=O)C4(C(=O)Nc5ccc(F)cc5)CC4)cc3F)ccnc2cc1OCCCN1CCOCC1 [Foretinib] (partner 0.25 µM) (assay: relative viability (nuclei count vs DMSO), 5 days (fraction); higher = more cells survive). Settings: first compound 40 µM.
In short: (§1)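 One day after seeding in 1536-well plates, lung cancer cell lines were dosed by pin tool. Dosing was either single-drug or a fixed anchor-drug dose plus five library-drug doses (not always all listed) in √10 steps. After 5 days, nuclei were stained in one fix-and-stain step and counted on 4× images, and relative viability is the nuclei count of treated wells over that of vehicle wells, given as the median of duplicate plates.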
EMC-BAC-2 was tested, and the relative viability was 0.842.
Cell Line NCI-H2085 has a relative viability of 0.884.
Work on Calu-6 yielded a relative viability of 0.84.
Cell Line HCC-366 has a relative viability of 0.957.
NCI-H1666 showed a relative viability of 0.858.
NCI-H596 gave a relative viability of 0.585.
For LK-2, the relative viability was 1.01.
For NCI-H2087, the relative viability was 1.05.
NCI-H2342 was tested, and the relative viability was 1.07.
Work on SK-MES-1 yielded a relative viability of 0.883.
H3255 gave a relative viability of 0.767.
With COR-L23 the relative viability was 0.996.
COR-L 105 gave a relative viability of 1.14.
IA-LM showed a relative viability of 1.19.
In the case of LOU-NH91, the relative viability is reported as 0.896.
In the case of ChaGo-K-1, the relative viability is reported as 0.843.
Work on NCI-H2170 yielded a relative viability of 1.08.
Work on NCI-H2405 yielded a relative viability of 1.02.
For A549, the relative viability was 0.985.
SW 900 gave a relative viability of 0.977.
NCI-H2009 showed a relative viability of 1.17.
In the case of NCI-H661, the relative viability is reported as 0.876.
SK-LU-1 showed a relative viability of 0.825.
NCI-H1299 gave a relative viability of 1.11.
In the case of NCI-H2228, the relative viability is reported as 0.916.
NCI-H2023 showed a relative viability of 0.904.
With NCI-H1563 the relative viability was 0.809.

The cell lines below were run with C1CC(C2=C(C1)C3=C(N2)C=CC(=C3)Cl)C(=O)N [Selisistat] + Cc1cc(Nc2cc(N3CCN(C)CC3)nc(Sc3ccc(NC(=O)C4CC4)cc3)n2)n[nH]1 [Tozasertib] (partner 0.1 µM) in the same assay as above. Settings: first compound 0.4 µM.
In short: as §1
For NCI-H522, the relative viability was 0.569.
NCI-H1623 was tested, and the relative viability was 0.445.
NCI-H727 gave a relative viability of 0.681.
NCI-H1650 showed a relative viability of 0.355.
NCI-H1993 gave a relative viability of 0.58.
In the case of SW 1573, the relative viability is reported as 0.206.
In the case of NCI-H838, the relative viability is reported as 0.238.
LCLC-103H gave a relative viability of 0.435.
Work on NCI-H520 yielded a relative viability of 0.387.
With NCI-H2126 the relative viability was 0.852.
EMC-BAC-2 gave a relative viability of 0.302.
With NCI-H2085 the relative viability was 0.852.
Work on HCC-366 yielded a relative viability of 0.0912.
For NCI-H1666, the relative viability was 0.631.
Cell Line NCI-H596 has a relative viability of 0.848.
LK-2 gave a relative viability of 0.155.
With NCI-H2087 the relative viability was 0.247.
NCI-H2342 was tested, and the relative viability was 0.504.
SK-MES-1 was tested, and the relative viability was 0.977.
H3255 was tested, and the relative viability was 0.624.
COR-L23 was tested, and the relative viability was 0.243.
For COR-L 105, the relative viability was 0.344.
LOU-NH91 gave a relative viability of 0.784.
ChaGo-K-1 gave a relative viability of 0.213.
NCI-H2170 was tested, and the relative viability was 0.732.
For NCI-H2405, the relative viability was 0.784.
With HCC-44 the relative viability was 0.968.
SW 900 gave a relative viability of 0.677.
In the case of NCI-H1648, the relative viability is reported as 0.511.
With NCI-H2009 the relative viability was 0.743.
For NCI-H661, the relative viability was 0.353.
In the case of SK-LU-1, the relative viability is reported as 0.365.
Cell Line NCI-H2228 has a relative viability of 0.315.
Cell Line NCI-H2023 has a relative viability of 0.417.

Same assay, conditions: first compound 1.265 µM
NCI-H522 showed a relative viability of 0.593.
Cell Line NCI-H1623 has a relative viability of 0.433.
NCI-H727 showed a relative viability of 0.518.
With NCI-H1650 the relative viability was 0.301.
Cell Line NCI-H1993 has a relative viability of 0.579.
In the case of SW 1573, the relative viability is reported as 0.175.
With NCI-H838 the relative viability was 0.278.
Work on LCLC-103H yielded a relative viability of 0.515.
NCI-H520 showed a relative viability of 0.472.
NCI-H2126 gave a relative viability of 0.819.
Work on EMC-BAC-2 yielded a relative viability of 0.286.
With NCI-H2085 the relative viability was 0.779.
Cell Line HCC-366 has a relative viability of 0.131.
NCI-H1666 was tested, and the relative viability was 0.591.
Cell Line NCI-H596 has a relative viability of 0.753.
In the case of LK-2, the relative viability is reported as 0.189.
NCI-H2087 gave a relative viability of 0.236.
NCI-H2342 was tested, and the relative viability was 0.502.
Work on SK-MES-1 yielded a relative viability of 0.869.
H3255 showed a relative viability of 0.772.
For COR-L23, the relative viability was 0.241.
With COR-L 105 the relative viability was 0.344.
LOU-NH91 showed a relative viability of 0.626.
For ChaGo-K-1, the relative viability was 0.214.
For NCI-H2170, the relative viability was 0.592.
NCI-H2405 showed a relative viability of 0.752.
SW 900 gave a relative viability of 0.563.
NCI-H1648 gave a relative viability of 0.513.
In the case of NCI-H2009, the relative viability is reported as 0.734.
Cell Line NCI-H661 has a relative viability of 0.354.
For SK-LU-1, the relative viability was 0.329.
Cell Line NCI-H2228 has a relative viability of 0.223.
Work on NCI-H2023 yielded a relative viability of 0.34.

Same assay, conditions: first compound 4 µM
NCI-H522 gave a relative viability of 0.509.
With NCI-H1623 the relative viability was 0.355.
NCI-H1650 gave a relative viability of 0.404.
NCI-H1993 was tested, and the relative viability was 0.57.
With SW 1573 the relative viability was 0.175.
For NCI-H838, the relative viability was 0.245.
LCLC-103H gave a relative viability of 0.494.
For NCI-H520, the relative viability was 0.488.
Cell Line NCI-H2126 has a relative viability of 0.825.
With EMC-BAC-2 the relative viability was 0.404.
NCI-H2085 was tested, and the relative viability was 0.697.
With HCC-366 the relative viability was 0.064.
Work on NCI-H1666 yielded a relative viability of 0.594.
Cell Line NCI-H596 has a relative viability of 0.898.
Work on LK-2 yielded a relative viability of 0.197.
For NCI-H2342, the relative viability was 0.504.
With SK-MES-1 the relative viability was 0.954.
H3255 gave a relative viability of 0.589.
With COR-L23 the relative viability was 0.218.
For LOU-NH91, the relative viability was 0.598.
Cell Line ChaGo-K-1 has a relative viability of 0.232.
NCI-H2170 showed a relative viability of 0.703.
NCI-H2405 showed a relative viability of 0.719.
With SW 900 the relative viability was 0.589.
NCI-H1648 gave a relative viability of 0.609.
NCI-H2009 gave a relative viability of 0.765.
NCI-H661 gave a relative viability of 0.379.
For SK-LU-1, the relative viability was 0.302.
With NCI-H2228 the relative viability was 0.29.
Cell Line NCI-H2023 has a relative viability of 0.286.

Same assay, conditions: first compound 12.65 µM
NCI-H522 was tested, and the relative viability was 0.608.
For NCI-H1623, the relative viability was 0.407.
Cell Line NCI-H727 has a relative viability of 0.483.
NCI-H1650 was tested, and the relative viability was 0.34.
NCI-H1993 was tested, and the relative viability was 0.569.
For SW 1573, the relative viability was 0.206.
With NCI-H838 the relative viability was 0.26.
LCLC-103H showed a relative viability of 0.47.
NCI-H520 was tested, and the relative viability was 0.415.
NCI-H2126 was tested, and the relative viability was 0.841.
EMC-BAC-2 showed a relative viability of 0.281.
Cell Line NCI-H2085 has a relative viability of 0.805.
Work on HCC-366 yielded a relative viability of 0.0918.
With NCI-H1666 the relative viability was 0.589.
For NCI-H596, the relative viability was 0.835.
Cell Line LK-2 has a relative viability of 0.176.
With NCI-H2087 the relative viability was 0.164.
Work on NCI-H2342 yielded a relative viability of 0.502.
With SK-MES-1 the relative viability was 0.829.
H3255 showed a relative viability of 0.657.
COR-L23 gave a relative viability of 0.171.
Cell Line COR-L 105 has a relative viability of 0.315.
For LOU-NH91, the relative viability was 0.703.
For ChaGo-K-1, the relative viability was 0.186.
With NCI-H2170 the relative viability was 0.629.
For NCI-H2405, the relative viability was 0.763.
In the case of HCC-44, the relative viability is reported as 0.848.
SW 900 gave a relative viability of 0.567.
Cell Line NCI-H1648 has a relative viability of 0.395.
In the case of NCI-H2009, the relative viability is reported as 0.694.
NCI-H661 showed a relative viability of 0.352.
With SK-LU-1 the relative viability was 0.32.
In the case of NCI-H2228, the relative viability is reported as 0.315.
For NCI-H2023, the relative viability was 0.263.

Same assay, conditions: first compound 40 µM
NCI-H522 gave a relative viability of 0.52.
In the case of NCI-H1623, the relative viability is reported as 0.405.
